In patent US20160074380A1, “Treatment Of Neurodegenerative Diseases With Combination Of Laquinimod And Fingolimod” (TEVA PHARMACEUTICAL INDUSTRIES LTD., priority 2014, published 2016):
“And” between values parts separate entries of the source, which are not always exact repeats. Identical values can stand only once. Marks after values point to notes of the source that are not given here.

How the values were obtained:
reactive astrocytes [1] = test: IL-6 concentration in conditioned media from reactive astrocytes (cytometry); format: cell-based, mice; conditions: LPS+IFNγ
Protocol: (§1) Mice mixed glial cells were cultured as described by McCarthy et al., 1980. Primary mice glial cells were prepared from the cortical of newborn Swiss mice (1 day). Briefly, meninges and blood vessels of the mice cortex were removed and placed in ice-cold medium of L15 containing 2% of PS and 1% of BSA. Tissues were dissociated with 0.25% trypsin-EDTA at 37° C. for 10 min. Cells were then submitted to a supplementary incubation of 15 min at 37° C. in presence of deoxyribonuclease I (final concentration of 0.5 mg/mL). Cells were then pelleted (5 min at 1200 rpm) and trypsinization was stopped by adding DMEM supplemented with 10% FCS, 1 mM of Na/pyruvate (PanBiotech, ref: P04-43100, batch: 3470914) and 2% PS. Cells suspension was mechanically dissociated and filtered through 40 μm diameter nylon meshes (BD Falcon, Ref: 352340). The cells were collected by centrifugation at 1200 rpm/min for 10 min, re-suspended in culture medium and then plated in culture flasks (Dutscher, ref: 690175). Cells were seeded at a density of 1.25×10^5 cells/cm2 and cultured in 5% CO2 at 37° C. Medium was changed three times per week.
(§2) Purification of astrocytes cells was done as described by Kim et al., 2006. After 14 days, the flasks were shaken on a rotary shaker at 200 rpm for 3 h. The resulting cell suspension rich in microglia was removed. Cells remaining in the flasks from which microglia had been harvested correspond to astrocytes at a purity of about 90%. Astrocytes were cultured in DMEM supplemented with 10% FCS, 1 mM of Na/pyruvate and 2% at 5% CO2 and 37° C. in flasks of 25 cm2.
(§3) When reaching confluence, primary astroglial cells were first incubated for 2 hours with Fingolimod (1 nM, 10 nM) or Laquinimod (1 nM, 10 nM, 100 nM, 1 μM, 10 μM) alone or in co-incubation or control medium.
(§4) At the end of 2 hours treatment with test compounds, astrocyte culture was activated with serum-free DMEM containing LPS (100 ng/mL; Sigma, Serotype 026:B6, ref: L2654; batch: 123M4052V) and IFNγ (10 ng/mL; Peprotech; ref: 315-05; batch: 061398 L0513) for 6 hours (Kim and Lee, 2013; Shu et al., 2014; Gresa-Arribas et al., 2012) in absence or presence of test compounds.
(§5) To obtain LPS/INFγ free conditioned media (CM), after 6 hours, cells were washed twice with DMEM and medium was replaced with DMEM supplemented with B27 (2%), L-glutamine (2 mM), PS solution (2%). LCM was collected 24 hrs after. For control, cells were incubated with medium not containing LPS/INFγ. […]

reactive astrocytes [2] = test: IL-12p70 concentration in conditioned media from reactive astrocytes (cytometry); format: cell-based, mice; conditions: LPS+IFNγ
Protocol: as §1, §2, §3, §4, §5

reactive astrocytes [3] = test: TNFα concentration in conditioned media from reactive astrocytes (cytometry); format: cell-based, mice
Protocol: as §1, §2, §3, §4, §5

reactive astrocytes [4] = test: GM-CSF concentration in conditioned media from reactive astrocytes (cytometry); format: cell-based, mice; conditions: LPS+IFNγ
Protocol: as §1, §2, §3, §4, §5

cortical neurons = test: Cortical neuron survival after 72 h with conditioned media from reactive astrocytes; format: cell-based, mice; conditions: conditioned media 72 h; for % cell survival: % of control
Protocol: Mice cortical neurons were cultured as described by Singer et al., 1999. Briefly pregnant female mice of 13 days gestation were killed by cervical dislocation (Mice Swiss; Janvier Lab). The foetuses were removed from the uterus. The cortexes were removed and placed in ice-cold medium of Leibovitz (L15, Panbiotech, ref: P04-27055, batch: 9310614) containing 2% of Penicillin 10.000 U/ml and Streptomycin 10 mg/ml (PS, Panbiotech, ref: P06-07100, batch: 8460514) and 1% of Bovine Serum Albumin (BSA, Panbiotech, Ref: P06-1391100, batch: H140603). Cortexes were dissociated by trypsin-EDTA (Panbiotech, Ref: P10-023100, batch: 3330914) for 20 min at 37° C. The reaction was stopped by the addition of Dulbecco's modified Eagle's Medium (DMEM, Panbiotech, Ref P04-03600, batch: 1300714) containing DNasel grade II (0.1 mg/ml, Panbiotech, ref: P60-37780100, batch: H140508) and 10% of Foetal Calf Serum (FCS, Invitrogen, ref: 10270-098, batch: 4103912K). Cells were then mechanically dissociated by 3 serial passages through a 10 ml pipette. Cells were then centrifuged at 515×g for 10 min at 4° C. The supernatant was discarded and the pellet of cells was re-suspended in a defined culture medium consisting of Neurobasal (Nb, Invitrogen, ref: 21103, batch: 1673148) supplemented with B27 (2%, Invitrogen, ref: 17504, batch: 1672731), L-glutamine (2 mM, Panbiotech, ref: P04-80100, batch: 6620314), 2% of PS solution and 10 ng/ml of Brain-derived neurotrophic factor (BDNF, PanBiotech, Ref: CB-1115002, Batch: 121027). Viable cells were counted in a Neubauer cytometer using the trypan blue exclusion test. The cells were seeded at a density of 30 000 cells/well in 96 well-plates pre-coated with poly-D-lysine (Greiner ref: 655930, batch: E140305F) and were cultured at +37° C. in a humidified air (95%)/CO2 (5%) atmosphere.
as §1, §2, §3
as §4, with “compounds. […]” for “compounds.”

[5] = test system: astrocytic and microglial activation and acute axonal damage; conditions: cited from earlier work; for demyelination, astrocytic and microglial activation: Kim, 2011
[6] = Mus musculus, Astrocyte, 1 nM, read-out: % inhibition of IL-6 release
[7] = Mus musculus, Astrocyte, 10 nM, read-out: % inhibition of IL-6 release
[8] = Mus musculus, Astrocyte, 1 nM, read-out: % inhibition of IL-12p70 release
[9] = Mus musculus, Astrocyte, 10 nM, read-out: % inhibition of IL-12p70 release
[10] = Mus musculus, Astrocyte, 1 nM, LPS+IFNγ, read-out: % inhibition of TNFα release
[11] = Mus musculus, Astrocyte, 10 nM, LPS+IFNγ, read-out: % inhibition of TNFα release
[12] = Mus musculus, Astrocyte, 1 nM, read-out: % inhibition of GM-CSF release
[13] = Mus musculus, Astrocyte, 10 nM, read-out: % inhibition of GM-CSF release

CCCCCCCCc1ccc(CCC(N)(CO)CO)cc1 [Fingolimod]
IL-6 content (reactive astrocytes [1]; 1 nM): 5421 pg/mL
IL-6 content (reactive astrocytes [1]; 10 nM): 4744 pg/mL
inhibition at 0.001 µM (reactive astrocytes [1]; [6]): 23.3%
inhibition at 0.01 µM (reactive astrocytes [1]; [7]): 32.9%
IL-12p70 content (reactive astrocytes [2]; 1 nM): 6.15 pg/mL
IL-12p70 content (reactive astrocytes [2]; 10 nM): 4.25 pg/mL
inhibition at 0.001 µM (reactive astrocytes [2]; [8]): 38.1%
inhibition at 0.01 µM (reactive astrocytes [2]; [9]): 57.2%
effect on TNFα release (reactive astrocytes [3]; 1 nM and 10 nM): didn't show any significant effect
TNFa content (reactive astrocytes [3]; 1 nM, LPS+IFNγ): 3170.03 pg/mL
TNFa content (reactive astrocytes [3]; 10 nM, LPS+IFNγ): 3053.66 pg/mL
inhibition at 0.001 µM (reactive astrocytes [3]; [10]): 3.4%
inhibition at 0.01 µM (reactive astrocytes [3]; [11]): 6.9%
GM-CSF content (reactive astrocytes [4]; 1 nM): 204.09 pg/mL
GM-CSF content (reactive astrocytes [4]; 10 nM): 147.56 pg/mL
GM-CSF release (reactive astrocytes [4]; 10 nM): 148 pg/mL
inhibition at 0.001 µM (reactive astrocytes [4]; [12]): 16%
inhibition at 0.01 µM (reactive astrocytes [4]; [13]): 39.2%
% cell survival (cortical neurons; 1 nM): 80%
% cell death (cortical neurons; 1 nM): 20%
% inhibition of cortical neuron cell death (cortical neurons; 1 nM): 41.2%
% cell survival (cortical neurons; 10 nM): 85%
% cell death (cortical neurons; 10 nM): 15%
% inhibition of cortical neuron cell death (cortical neurons; 10 nM): 55.9* %
demyelination, astrocytic and microglial activation [5]: partial response

CCN(C(=O)c1c(O)c2c(Cl)cccc2n(C)c1=O)c1ccccc1 [Laquinimod]
IL-6 content (reactive astrocytes [1]; 1 nM): 6198 pg/mL
IL-6 content (reactive astrocytes [1]; 10 nM): 6315 pg/mL
IL-6 content (reactive astrocytes [1]; 1 μM): 2640 pg/mL
inhibition at 0.001 µM (reactive astrocytes [1]; [6]): 12.3%
inhibition at 0.01 µM (reactive astrocytes [1]; [7]): 10.6%
inhibition at 1 µM (reactive astrocytes [1]; Mus musculus, Astrocyte, 1 μM, read-out: % inhibition of IL-6 release): 62.6%
IL-12p70 content (reactive astrocytes [2]; 1 nM): 6.53 pg/mL
IL-12p70 content (reactive astrocytes [2]; 10 nM): 6.29 pg/mL
IL-12p70 content (reactive astrocytes [2]; 100 nM): 3.84 pg/mL
IL-12p70 content (reactive astrocytes [2]; 1 μM): 2.55 pg/mL
inhibition at 0.001 µM (reactive astrocytes [2]; [8]): 34.3%
inhibition at 0.01 µM (reactive astrocytes [2]; [9]): 36.7%
inhibition at 0.1 µM (reactive astrocytes [2]; Mus musculus, Astrocyte, 100 nM, read-out: % inhibition of IL-12p70 release): 61.4%
inhibition at 1 µM (reactive astrocytes [2]; Mus musculus, Astrocyte, 1 μM, read-out: % inhibition of IL-12p70 release): 74.3%
TNFa content (reactive astrocytes [3]; 1 nM, LPS+IFNγ): 3257.64 pg/mL
TNFa content (reactive astrocytes [3]; 10 nM, LPS+IFNγ): 2440.81 pg/mL
TNFa content (reactive astrocytes [3]; 100 nM, LPS+IFNγ): 2464 pg/mL
TNFa content (reactive astrocytes [3]; 1 μM, LPS+IFNγ): 2769 pg/mL and 2769.46 pg/mL
inhibition at 0.001 µM (reactive astrocytes [3]; [10]): 0.7%
inhibition at 0.01 µM (reactive astrocytes [3]; [11]): 25.6%
inhibition at 0.1 µM (reactive astrocytes [3]; Mus musculus, Astrocyte, 100 nM, LPS+IFNγ, read-out: % inhibition of TNFα release): 24.9%
inhibition at 1 µM (reactive astrocytes [3]; Mus musculus, Astrocyte, 1 μM, LPS+IFNγ, read-out: % inhibition of TNFα release): 15.6%
GM-CSF content (reactive astrocytes [4]; 1 nM): 207.71 pg/mL
GM-CSF content (reactive astrocytes [4]; 10 nM): 209.51 pg/mL
GM-CSF content (reactive astrocytes [4]; 100 nM): 179.39 pg/mL
GM-CSF content (reactive astrocytes [4]; 1 μM): 154 pg/mL and 154.26 pg/mL
inhibition at 0.001 µM (reactive astrocytes [4]; [12]): 14.5%
inhibition at 0.01 µM (reactive astrocytes [4]; [13]): 13.7%
inhibition at 0.1 µM (reactive astrocytes [4]; Mus musculus, Astrocyte, 100 nM, read-out: % inhibition of GM-CSF release): 26.1%
inhibition at 1 µM (reactive astrocytes [4]; Mus musculus, Astrocyte, 1 μM, read-out: % inhibition of GM-CSF release): 36.5%
% cell survival (cortical neurons; 1 nM): 73%
% cell death (cortical neurons; 1 nM): 27%
% inhibition of cortical neuron cell death (cortical neurons; 1 nM): 20.6* %
% cell survival (cortical neurons; 10 nM): 80%
% cell death (cortical neurons; 10 nM): 20%
% inhibition of cortical neuron cell death (cortical neurons; 10 nM): 41.2%
% cell survival (cortical neurons; 100 nM): 83%
% cell death (cortical neurons; 100 nM): 17%
% inhibition of cortical neuron cell death (cortical neurons; 100 nM): 50.0%
% cell survival (cortical neurons; 1 μM): 92%
% cell death (cortical neurons; 1 μM): 8%
% inhibition of cortical neuron cell death (cortical neurons; 1 μM): 76.5%
acute axonal damage ([5]; Brück, 2012): reduces it completely
demyelination, astrocytic and microglial activation [5]: partial response
